Results published in paper PMC12844998, “Bridging the Knowledge Gap in Harmaline’s Pharmacological Properties: A Focus on Thermodynamics and Kinetics” (Pharmaceutics, 2025).
Values after ≈ are worked out from the molar mass of the structure shown. Values joined by “and” are separate entries in the source; they are usually repeats but may differ in a detail not shown here. Equal values may be shown once. Read-outs that look alike come from different tables or passages of the source.

Experiments:
[1] = undefined temperature, cited from earlier work
Caco-2 monolayers = assay: Literature permeability across Caco-2 monolayers; type: in vitro ADME; conditions: literature Caco-2 (ref 12) vs PP Papp
[2] = Permeability in Franz diffusion cell, regenerated cellulose membrane; type: in vitro ADME; conditions: RC membrane, pH 7.4, 310.15 K
Method: Permeability coefficients were measured in a vertical type Franz diffusion cell (PermeGear, Inc., Hellertown, PA, USA) maintained at 37 °C, with an effective diffusion area of 0.785 cm^2. The volumes of the donor (lower) and the acceptor (upper) compartments were 7 mL and 2 mL, respectively. Three artificial membranes were used in the study: Regenerated cellulose (RC): Standard Grade RC Dialysis Membrane with a molecular weight cut-off (MWCO) of 12–14 kDa and a flat width of 45 mm; PermeaPad barrier (PP): A commercially available barrier (PHABIOC, Fritz-Souchon-Str. 27, 32339 Espelkamp, Germany; www.innome.de), originally proposed by di Cagno et al.; Polydimethylsiloxane-polycarbonate membrane (PDS): A “Carbosil” membrane composed of 55% polydimethylsiloxane and 45% polycarbonate (PENTAMED, Moscow, Russia; https://medpolymer.ru/).
A solution of HML in pH 7.4 (7 mL) was placed into the donor chamber of a Franz cell. The acceptor compartment was filled with pure buffer pH 7.4 (1 mL). Over a period of 5 h, 0.5 mL samples were withdrawn from the acceptor compartment at 30 min intervals and replaced with an equal volume of fresh pH 7.4 buffer. The sample concentrations were determined by UV-Vis spectroscopy (Cary-50, Varian, Palo Alto, CA, USA; Software Version 3.00 (339)) or by HPLC (for experiments involving the polydimethylsiloxane-polycarbonate membrane). The cumulative amount of drug permeated through the membrane was plotted as a function of time. The flux was determined from the slope of the linear portion of each curve. The permeability coefficient was calculated using the following equation:(4) Papp=J/C0 where J is the flux, and C0 is the concentration of HML in the donor solution. A reverse dialysis setup was employed, where the lower chamber served as the donor compartment and was filled with the drug solution. Sink conditions were maintained in all experiments, meaning the drug concentration in the acceptor compartment never exceeded 10% of its concentration in the donor compartment at any time according the recommendations proposed in [18].

[3] = Transfer thermodynamics from van't Hoff plots of distribution coefficients; type: physicochemical; conditions: 298.15 K
Excerpt: (§1) The calculation of the thermodynamic parameters for the solubility and distribution processes was based on component concentrations expressed in terms of mole fractions. The standard calculation procedure and the respective equations are presented in the Supplementary Materials (Section S4).

MDCK cells = assay: Literature permeability across MDCK cells; type: in vitro ADME; conditions: literature MDCK (ref 12) vs PP Papp
[4] = Dissolution thermodynamics from van't Hoff plots of solubility; type: physicochemical
Excerpt: as §1

[5] = Equilibrium solubility, shake-flask method; type: physicochemical; conditions: for solubility at 24 h: Hex, organic solvent or mixture, thermodynamic from solid, value given as S2×10^5, read-out: solubility S2∙105
Method: The equilibrium solubility of HML was measured by the shake-flask method over a wide temperature range of 293.15–313.15 K. Briefly, glass vials containing the respective solvent were charged with an excess of the drug. The vials were shaken at a predetermined temperature for 24 h—a duration previously established as sufficient to reach equilibrium between the solid and liquid phases. Following shaking, samples were equilibrated for ~5 h to prevent supersaturation and then centrifuged (10,000 rpm, 10 min; Biofuge pico, Thermo Electron LED GmbH, Osterode am Harz, Germany) at constant temperature. Concentrations were determined spectrophotometrically at 373 nm using a Cary-50 instrument (Varian, Palo Alto, CA, USA; software version 3.00 (339)) based on calibration curves. Data are presented as the mean ± standard deviation (or standard error) of at least three independent replicates. The error bars represent the standard deviation (SD), which ranged from 2% to 4% of the mean.

[6] = pH 7.4, comparison with literature ref 19

Compound: COc1ccc2c3c([nH]c2c1)C(C)=NCC3 [HML, Harmaline]
- distribution coefficient n-heptane/aqueous (pH 7.4) ([1]; ref 19): 0.05
- distribution coefficient n-heptane/aqueous (pH 7.4) ([1]; ref 20): 0.11
- maximum difference between Caco-2 model permeability and PermeaPad result (Caco-2 monolayers): ≤ 1.4 fold
- logPapp [2]: −4.31
- steady state flux J ([2]; C0 2.11 × 10^−3 M): 1.04 × 10^−4 µmol∙cm^−2∙s^−1
- Papp at 5 h ([2]; read-out: permeability coefficient Papp): 49.3 ×10⁻⁶ cm/s
- TΔStr0 ([3]; Hex→OctOH): 21.4±1.9 kJꞏmol-1
- distribution coefficient Dx (mole fraction scale) ([3]; Hex→OctOH): 993.14
- enthalpy contribution to transfer (ΔHtr0 share) ([3]; Hex→OctOH): 16.7%
- entropy contribution to transfer (TΔStr0 share) ([3]; Hex→OctOH): 83.3%
- ΔGtr0 ([3]; Hex→OctOH): -17.1±0.3 kJꞏmol-1 and −17.1 kJꞏmol-1
- ΔHtr0 ([3]; Hex→OctOH): 4.3±0.3 kJꞏmol-1
- TΔStr0 ([3]; pH 7.4→Hex): 23.4±1.0 kJꞏmol-1
- enthalpy contribution to transfer (ΔHtr0 share) ([3]; pH 7.4→Hex): 55.3%
- entropy contribution to transfer (TΔStr0 share) ([3]; pH 7.4→Hex): 44.7%
- ΔHtr0 ([3]; pH 7.4→Hex): 28.9±0.7 kJꞏmol-1
- TΔStr0 ([3]; pH 7.4→OctOH): 44.4±1.3 kJꞏmol-1
- distribution coefficient Dx (mole fraction scale) ([3]; pH 7.4→OctOH): 103.10
- enthalpy contribution to transfer (ΔHtr0 share) ([3]; pH 7.4→OctOH): 42.6%
- entropy contribution to transfer (TΔStr0 share) ([3]; pH 7.4→OctOH): 57.4%
- ΔGtr0 ([3]; pH 7.4→OctOH): -11.5±0.2 kJꞏmol-1 and −11.5 kJꞏmol-1
- ΔHtr0 ([3]; pH 7.4→OctOH): 32.9±0.3 kJꞏmol-1
- MDCK permeability coefficient, fold lower than PermeaPad result (MDCK cells): up to 2.3 fold
- Gibbs energy of solution ΔGsol0 ([4]; Hex, 298.15 K): 6.84 kcal/mol
- enthalpy share of the total free energy change of dissolution ([4]; Hex, 298.15 K): 84%
- entropy share of the total free energy change of dissolution ([4]; Hex, 298.15 K): 16%
- Gibbs energy of solution ΔGsol0 ([4]; OctOH, 298.15 K): 2.89 kcal/mol
- Gibbs energy of solution ΔGsol0 ([4]; pH 7.4, 298.15 K): 5.66 kcal/mol
- solubility at pH 2.0 relative to pH 7.4 (higher) ([5]; 310.15 K): 2.2 fold
- solubility at 24 h ([5]; 293.15 K): 59.2 ± 1.3 µM (≈ 12.7 µg/mL)
- solubility at 24 h ([5]; 295.15 K): 65 ± 1.1 µM (≈ 13.9 µg/mL)
- solubility at 24 h ([5]; 298.15 K): 75.3 ± 1.2 µM (≈ 16.1 µg/mL)
- solubility at 24 h ([5]; 303.15 K): 93.2 ± 1.7 µM (≈ 20 µg/mL)
- solubility at 24 h ([5]; 308.15 K): 113.9 ± 0.7 µM (≈ 24.4 µg/mL)
- solubility at 24 h ([5]; 310.15 K): 130 ± 3.2 µM (≈ 27.9 µg/mL)
- solubility at 24 h ([5]; 313.15 K): 145 ± 4.1 µM (≈ 31 µg/mL)
- solubility at pH 7.4 relative to reserpine (more soluble) [5, 6]: 42 fold
- solubility at pH 7.4 relative to vincamine (more soluble) [5, 6]: 44 fold
